A short description of test [1]: ALSFRS-R score (self-reported) in ALS patients. It counts as in vivo, human. The text has this:
Patients in the study self-reported the ALSFRS-R score. The Amyotrophic Lateral Sclerosis Functional Rating Scale (ALSFRS-R) is a score from 0-48 which assesses disability in patients with MND. It was developed by Cedarbaum and colleagues (Cedarbaum J M. The ALSFRS-R: a revised ALS functional rating scale that incorporates assessments of respiratory function. BDNF ALS Study Group (Phase III). J Neurol Sci 1999; 169: 13-21). There are twelve questions, some asking about daily activities and how much help a patient needs with them, and some about specific symptoms.
1 for 8 months, no. 2 for 2 months, no. 6 for 4 months, no 7 for 5 months, and no. 11 for 4 months (Table 1). […] 1: 2.6 loss to 0.4 loss, no. 6: from 0.7 loss to 1 point gain, no. 11: from 3.5 loss to 0.5 loss. Said three patients were the patients receiving the composition of the present invention.

In test [2] the test system is inflammatory genes in peripheral blood mononuclear cells. In words: Inflammatory gene transcription in peripheral blood mononuclear cells of ALS patients. It counts as in vivo, human. The note with it: PBMCs. The text has this:
The aim of this study was to investigate in vivo baseline inflammatory gene transcription in peripheral blood mononuclear cells and the effects of tozilizumab (Actemra®) in 11 ALS patients and also measure the disability before and after the therapy comparing the FRS-R score (Functional Rating Scale). Fiala et al., (to be published). The patients were free to take nutritional supplements. Three patients were taking the composition used in the present invention, transcription results are presented in Example 1 together with the results from the ALSFRS-R score (The Amyotrophic Lateral Sclerosis Functional Rating Scale).
In vivo baseline inflammatory gene transcription in peripheral blood mononuclear cells of 11 ALS patients and the effects of tocilizumab (Actemra®) (cytokine antagonist) infusions were studied tocilizumab inhibits global interleukin-6 (IL6) signaling, a key mechanism in chronic rheumatoid disorder.
At base line one half of the ALS subjects had strong inflammatory activation (Group 1) (8 genes up regulated >4-fold, P<0.05 vs. controls) and the other half (Group 2) had weak activation (Group 2).

In the case of tocilizumab [Actemra], the “FRS-R change After Actemra” value in test [1] (patient #1, spinal ALS, Group 1, before −2.6, treated 8 months, also took the composition) is recorded as −0.4 points/mo; in test [1] (patient #2, spinal ALS, Group 1, before −1.3, treated 2 months), −0.75 points/mo; in test [1] (patient #6, spinal ALS, Group 2, before −0.7, treated 4 months, also took the composition), “+1.0 points/mo”; in test [1] (patient #7, spinal ALS, Group 2, before −0.37, treated 5 months), −2.0 points/mo; in test [1] (patient #11, spinal ALS, Group unknown, before −3.5, treated 4 months, also took the composition), −0.5 points/mo. Further, the “regulation of inflammatory genes after infusions” value in test [2] (ALS patients of Group 1 (strong inflammation)) is on record as “down regulation”; in test [2] (ALS patients of Group 2 (weak inflammation)), “up regulation”.

(Values after US10130601B2, “Use of a composition comprising fish oil and juice for the treatment of inflammation” (Smartfish AS, priority 2013, dated 2018).)
